{
  "source": "patent US6479435B1",
  "about": "“Diaryl ethers and processes for their preparation and herbicidal and desiccant compositions containing them” (ISK Americas Incorporated, priority 1997, dated 2002)",
  "type_in_all_cases": "in vivo",
  "key": {"[1]": {"system": "Johnsongrass (Sorghum halepense, SORHA)", "test": "Pre-emerge greenhouse herbicide test, phytotoxicity rating", "conditions": "14 days after application, rating scale 0-100", "how_it_was_run": "(§1)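 Seeds sown in sandy loam one day before track-sprayer application of acetone solutions at 125–1000 g ai/ha (187 l/ha), then surface-watered to incorporate and bottom-watered. Injury scored visually at 14 days on a 0–100 scale (0 no damage, 100 complete death).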"}, "[2]": {"system": "barnyardgrass (Echinochloa crusgalli, ECHCG)", "test": "Pre-emerge greenhouse herbicide test, phytotoxicity rating", "conditions": "14 days after application, rating scale 0-100", "how_it_was_run": "as §1"}, "[3]": {"system": "common ragweed (Ambrosia artemisiifolia L., AMBEL)", "test": "Pre-emerge greenhouse herbicide test, phytotoxicity rating", "conditions": "14 days after application, rating scale 0-100", "how_it_was_run": "as §1"}, "[4]": {"system": "green foxtail (Setaria viridis, SETVI)", "test": "Pre-emerge greenhouse herbicide test, phytotoxicity rating", "conditions": "14 days after application, rating scale 0-100", "how_it_was_run": "as §1"}, "[5]": {"system": "ivyleaf morningglory (Ipomoea hederacea, IPOHE)", "test": "Pre-emerge greenhouse herbicide test, phytotoxicity rating", "conditions": "14 days after application, rating scale 0-100", "how_it_was_run": "as §1"}, "[6]": {"system": "lambsquarters (Chenopodium album, CHEAL)", "test": "Pre-emerge greenhouse herbicide test, phytotoxicity rating", "conditions": "14 days after application, rating scale 0-100", "how_it_was_run": "as §1"}, "[7]": {"system": "large crabgrass (Digitaria sanguinalis, DIGSA)", "test": "Pre-emerge greenhouse herbicide test, phytotoxicity rating", "conditions": "14 days after application, rating scale 0-100", "how_it_was_run": "as §1"}, "[8]": {"system": "redroot pigweed (Amaranthus retroflexus, AMARE)", "test": "Pre-emerge greenhouse herbicide test, phytotoxicity rating", "conditions": "14 days after application, rating scale 0-100", "how_it_was_run": "as §1"}, "[9]": {"system": "sicklepod (Cassia obtusifolia, CASOB)", "test": "Pre-emerge greenhouse herbicide test, phytotoxicity rating", "conditions": "14 days after application, rating scale 0-100", "how_it_was_run": "as §1"}, "[10]": {"system": "velvetleaf (Abutilon theophrasti, ABUTH)", "test": "Pre-emerge greenhouse herbicide test, phytotoxicity rating", "conditions": "14 days after application, rating scale 0-100", "how_it_was_run": "as §1"}, "[11]": {"system": "field corn (Zea mays L., var. Dekalb 535, CORN)", "test": "Pre-emerge greenhouse test, crop damage rating", "conditions": "14 days after application, rating scale 0-100", "how_it_was_run": "as §1"}, "[12]": {"system": "upland rice (Oryza sp., var.Tebonnet, RICE)", "test": "Pre-emerge greenhouse test, crop damage rating", "conditions": "14 days after application, rating scale 0-100", "how_it_was_run": "as §1"}, "[13]": {"system": "soybean (Glycine max L., var. Pella 86, SOY)", "test": "Pre-emerge greenhouse test, crop damage rating", "design": "key to SOY crop damage rating: 0 = no damage, 100 = complete death of all plants", "conditions": "14 days after application, rating scale 0-100", "how_it_was_run": "as §1"}, "[14]": {"system": "common ragweed (Ambrosia artemisiifolia L., AMBEL)", "test": "Post-emerge greenhouse herbicide test, phytotoxicity rating", "conditions": "14 days after application, scale 0-100", "how_it_was_run": "(§2)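 Plants at the 2-3 leaf stage, sown 8-21 days earlier, were track-sprayed post-emergence with compound in acetone plus 0.25% v/v non-ionic surfactant at 63-1000 g ai/ha (187 l/ha). Damage was rated at 14 days on a 0-100 scale (0 none, 100 all plants dead), for both crop injury and weed control.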"}, "[15]": {"system": "Johnsongrass (Sorghum halepense, SORHA)", "test": "Post-emerge greenhouse herbicide test, phytotoxicity rating", "conditions": "14 days after application, scale 0-100", "how_it_was_run": "as §2"}, "[16]": {"system": "barnyardgrass (Echinochloa crusgalli, ECHCG)", "test": "Post-emerge greenhouse herbicide test, phytotoxicity rating", "conditions": "14 days after application, scale 0-100", "how_it_was_run": "as §2"}, "[17]": {"system": "green foxtail (Setaria viridis, SETVI)", "test": "Post-emerge greenhouse herbicide test, phytotoxicity rating", "conditions": "14 days after application, scale 0-100", "how_it_was_run": "as §2"}, "[18]": {"system": "ivyleaf morningglory (Ipomoea hederacea, IPOHE)", "test": "Post-emerge greenhouse herbicide test, phytotoxicity rating", "conditions": "14 days after application, scale 0-100", "how_it_was_run": "as §2"}, "[19]": {"system": "lambsquarters (Chenopodium album, CHEAL)", "test": "Post-emerge greenhouse herbicide test, phytotoxicity rating", "conditions": "14 days after application, scale 0-100", "how_it_was_run": "as §2"}, "[20]": {"system": "large crabgrass (Digitaria sanguinalis, DIGSA)", "test": "Post-emerge greenhouse herbicide test, phytotoxicity rating", "conditions": "14 days after application, scale 0-100", "how_it_was_run": "as §2"}, "[21]": {"system": "redroot pigweed (Amaranthus retroflexus, AMARE)", "test": "Post-emerge greenhouse herbicide test, phytotoxicity rating", "conditions": "14 days after application, scale 0-100", "how_it_was_run": "as §2"}, "[22]": {"system": "sicklepod (Cassia obtusifolia, CASOB)", "test": "Post-emerge greenhouse herbicide test, phytotoxicity rating", "conditions": "14 days after application, scale 0-100", "how_it_was_run": "as §2"}, "[23]": {"system": "velvetleaf (Abutilon theophrasti, ABUTH)", "test": "Post-emerge greenhouse herbicide test, phytotoxicity rating", "conditions": "14 days after application, scale 0-100", "how_it_was_run": "as §2"}, "[24]": {"system": "field corn (Zea mays L., var. Dekalb 535, CORN)", "test": "Post-emerge greenhouse test, crop damage rating", "conditions": "14 days after application, scale 0-100", "how_it_was_run": "as §2"}, "[25]": {"system": "upland rice (Oryza sp., var.Tebonnet, RICE)", "test": "Post-emerge greenhouse test, crop damage rating", "conditions": "14 days after application, scale 0-100", "how_it_was_run": "as §2"}, "[26]": {"system": "soybean (Glycine max L., var. Pella 86, SOY)", "test": "Post-emerge greenhouse test, crop damage rating", "design": "key to crop damage rating SOY: 0-100 scale: 0 = no damage, 100 = complete death of all plants", "conditions": "14 days after application, scale 0-100", "how_it_was_run": "as §2"}},
  "data": [
    {"compound": "O=c1n(-c2cc(Oc3nc(Cl)ccc3C(F)(F)F)c(Cl)cc2F)c(=S)n2n1CCCC2", "note": "[Compound 8-27]", "values": [
      {"measurement": "SORHA phytotoxicity rating", "setting": "[1]; Rate 125 g al/ha", "value": 0},
      {"measurement": "SORHA phytotoxicity rating", "setting": "[1]; Rate 500 g al/ha", "value": 30},
      {"measurement": "ECHCG phytotoxicity rating", "setting": "[2]; Rate 125 g al/ha", "value": 0},
      {"measurement": "ECHCG phytotoxicity rating", "setting": "[2]; Rate 500 g al/ha", "value": 0},
      {"measurement": "AMBEL phytotoxicity rating", "setting": "[3]; Rate 125 g al/ha", "value": 0},
      {"measurement": "AMBEL phytotoxicity rating", "setting": "[3]; Rate 500 g al/ha", "value": 0},
      {"measurement": "SETVI phytotoxicity rating", "setting": "[4]; Rate 125 g al/ha", "value": 60},
      {"measurement": "SETVI phytotoxicity rating", "setting": "[4]; Rate 500 g al/ha", "value": 100},
      {"measurement": "IPOHE phytotoxicity rating", "setting": "[5]; Rate 125 g al/ha", "value": 0},
      {"measurement": "IPOHE phytotoxicity rating", "setting": "[5]; Rate 500 g al/ha", "value": 30},
      {"measurement": "CHEAL phytotoxicity rating", "setting": "[6]; Rate 125 g al/ha", "value": 80},
      {"measurement": "CHEAL phytotoxicity rating", "setting": "[6]; Rate 500 g al/ha", "value": 100},
      {"measurement": "DIGSA phytotoxicity rating", "setting": "[7]; Rate 125 g al/ha", "value": 10},
      {"measurement": "DIGSA phytotoxicity rating", "setting": "[7]; Rate 500 g al/ha", "value": 50},
      {"measurement": "AMARE phytotoxicity rating", "setting": "[8]; Rate 125 g al/ha", "value": 100},
      {"measurement": "AMARE phytotoxicity rating", "setting": "[8]; Rate 500 g al/ha", "value": 100},
      {"measurement": "CASOB phytotoxicity rating", "setting": "[9]; Rate 125 g al/ha", "value": 0},
      {"measurement": "CASOB phytotoxicity rating", "setting": "[9]; Rate 500 g al/ha", "value": 80},
      {"measurement": "ABUTH phytotoxicity rating", "setting": "[10]; Rate 125 g al/ha", "value": 50},
      {"measurement": "ABUTH phytotoxicity rating", "setting": "[10]; Rate 500 g al/ha", "value": 100},
      {"measurement": "CORN crop damage rating", "setting": "[11]; Rate 125 g al/ha", "value": 0},
      {"measurement": "CORN crop damage rating", "setting": "[11]; Rate 500 g al/ha", "value": 0},
      {"measurement": "RICE crop damage rating", "setting": "[12]; Rate 125 g al/ha", "value": 0},
      {"measurement": "RICE crop damage rating", "setting": "[12]; Rate 500 g al/ha", "value": 10},
      {"measurement": "SOY crop damage rating", "setting": "[13]; Rate 125 g al/ha", "value": 0},
      {"measurement": "SOY crop damage rating", "setting": "[13]; Rate 500 g al/ha", "value": 0},
      {"measurement": "phytotoxicity rating AMBEL", "setting": "[14]; rate 63 g ai/ha", "value": 60},
      {"measurement": "phytotoxicity rating AMBEL", "setting": "[14]; rate 500 g ai/ha", "value": 85},
      {"measurement": "phytotoxicity rating SORHA", "setting": "[15]; rate 63 g ai/ha", "value": 30},
      {"measurement": "phytotoxicity rating SORHA", "setting": "[15]; rate 500 g ai/ha", "value": 20},
      {"measurement": "phytotoxicity rating ECHCG", "setting": "[16]; rate 63 g ai/ha", "value": 0},
      {"measurement": "phytotoxicity rating ECHCG", "setting": "[16]; rate 500 g ai/ha", "value": 10},
      {"measurement": "phytotoxicity rating SETVI", "setting": "[17]; rate 63 g ai/ha", "value": 50},
      {"measurement": "phytotoxicity rating SETVI", "setting": "[17]; rate 500 g ai/ha", "value": 50},
      {"measurement": "phytotoxicity rating IPOHE", "setting": "[18]; rate 63 g ai/ha", "value": 50},
      {"measurement": "phytotoxicity rating IPOHE", "setting": "[18]; rate 500 g ai/ha", "value": 80},
      {"measurement": "phytotoxicity rating CHEAL", "setting": "[19]; rate 63 g ai/ha", "value": 90},
      {"measurement": "phytotoxicity rating CHEAL", "setting": "[19]; rate 500 g ai/ha", "value": 100},
      {"measurement": "phytotoxicity rating DIGSA", "setting": "[20]; rate 63 g ai/ha", "value": 10},
      {"measurement": "phytotoxicity rating DIGSA", "setting": "[20]; rate 500 g ai/ha", "value": 20},
      {"measurement": "phytotoxicity rating AMARE", "setting": "[21]; rate 63 g ai/ha", "value": 90},
      {"measurement": "phytotoxicity rating AMARE", "setting": "[21]; rate 500 g ai/ha", "value": 100},
      {"measurement": "phytotoxicity rating CASOB", "setting": "[22]; rate 63 g ai/ha", "value": 30},
      {"measurement": "phytotoxicity rating CASOB", "setting": "[22]; rate 500 g ai/ha", "value": 100},
      {"measurement": "phytotoxicity rating ABUTH", "setting": "[23]; rate 63 g ai/ha", "value": 80},
      {"measurement": "phytotoxicity rating ABUTH", "setting": "[23]; rate 500 g ai/ha", "value": 100},
      {"measurement": "crop damage rating CORN", "setting": "[24]; rate 63 g ai/ha", "value": 5},
      {"measurement": "crop damage rating CORN", "setting": "[24]; rate 500 g ai/ha", "value": 10},
      {"measurement": "crop damage rating RICE", "setting": "[25]; rate 63 g ai/ha", "value": 0},
      {"measurement": "crop damage rating RICE", "setting": "[25]; rate 500 g ai/ha", "value": 5},
      {"measurement": "crop damage rating SOY", "setting": "[26]; rate 63 g ai/ha", "value": 70},
      {"measurement": "crop damage rating SOY", "setting": "[26]; rate 500 g ai/ha", "value": 80}
    ]}
  ]
}
